Results taken from US8044073B2, “Aminobenzimidazoles and benzimidazoles as inhibitors of respiratory syncytial virus replication” (Tibotec Pharmaceuticals, priority 2003, dated 2011).
Where two headings read alike, the source gives them in different places.

Key:
[1] = system: Respiratory Syncytial Virus; assay: In vitro screening for activity against RSV (tetrazolium-based colorimetric assay, protection against viral cytopathology); type: cell-based; details: for EC50: human respiratory syncytial virus, 168 h
Text: The percent protection against cytopathology caused by viruses (antiviral activity or EC50) achieved by tested compounds and their cytotoxicity (CC50) are both calculated from dose-response curves. The selectivity of the antiviral effect is represented by the selectivity index (SI), calculated by dividing the CC50 (cytotoxic dose for 50% of the cells) by the EC50 (antiviral activity for 50% of the cells). The tables in the above experimental part list the category to which each of the prepared compounds belong: Compounds belonging to activity category “A” have a pEC50 (−log of EC50 when expressed in molar units) equal to or more than 7. Compounds belonging to activity category “B” have a pEC50 value between 6 and 7.
Automated tetrazolium-based colorimetric assays were used for determination of EC50 and CC50 of test compounds. Flat-bottom, 96-well plastic microtiter trays were filled with 180 μl of Eagle's Basal Medium, supplemented with 5% FCS (0% for FLU) and 20 mM Hepes buffer. Subsequently, stock solutions (7.8× final test concentration) of compounds were added in 45 μl volumes to a series of triplicate wells so as to allow simultaneous evaluation of their effects on virus- and mock-infected cells. Five five-fold dilutions were made directly in the microtiter trays using a robot system. Untreated virus controls, and HeLa cell controls were included in each test. Approximately 100 TCID50 of Respiratory Syncytial Virus was added to two of the three rows in a volume of 50 μl. The same volume of medium was added to the third row to measure the cytotoxicity of the compounds at the same concentrations as those used to measure the antiviral activity. After two hours of incubation, a suspension (4×10^5 cells/ml) of HeLa cells was added to all wells in a volume of 50 μl. The cultures were incubated at 37° C. in a 5% CO2 atmosphere. Seven days after infection the cytotoxicity and the antiviral activity was examined spectrophotometrically. To each well of the microtiter tray, 25 μl of a solution of MTT (3-(4,5-dimethylthiazol-2-yl)-2,5-diphenyltetrazolium bromide) was added. The trays were further incubated at 37° C. for 2 hours, after which the medium was removed from each cup. Solubilization of the formazan crystals was achieved by adding 100 μl 2-propanol. Complete dissolution of the formazan crystals were obtained after the trays have been placed on a plate shaker for 10 min. Finally, the absorbances were read in an eight-channel computer-controlled photometer (Multiskan MCC, Flow Laboratories) at two wavelengths (540 and 690 nm). The absorbance measured at 690 nm was automatically subtracted from the absorbance at 540 nm, so as to eliminate the effects of non-specific absorption.
The percent protection against cytopathology caused by viruses (antiviral activity or EC50) achieved by tested compounds and their cytotoxicity (CC50) were both calculated from dose-response curves. The selectivity of the antiviral effect is represented by the selectivity index (SI), calculated by dividing the CC50 (cytotoxic dose for 50% of the cells) by the EC50 (antiviral activity for 50% of the cells).

[2] = Table 3, RSV in HeLa cells, MTT, seven days after infection, pEC50 = -log of EC50 in molar units, read-out: Activity (converted)
[3] = Table 6, numeric activity values, pEC50 (−log of EC50 in molar units)
[4] = Table 1, RSV in HeLa cells, MTT, seven days after infection, pEC50 = -log of EC50 in molar units
[5] = Table 5a, RSV in HeLa cells, MTT, seven days after infection, pEC50 = -log of EC50 in molar units
[6] = Table 5b, RSV in HeLa cells, MTT, seven days after infection, pEC50 = -log of EC50 in molar units
[7] = Table 2, RSV in HeLa cells, MTT, seven days after infection, pEC50 = -log of EC50 in molar units
[8] = Table 4, RSV in HeLa cells, MTT, seven days after infection, pEC50 = -log of EC50 in molar units
[9] = Table 3, RSV in HeLa cells, MTT, seven days after infection, pEC50 = -log of EC50 in molar units

**Q.** Which results are given for Cc1cccc(NCc2cc(C)c3nc(N)n(Cc4nc(C)ccc4O)c3c2)c1 [Compound 194, 2-[2-amino-4-methyl-6-(m-tolylamino-methyl)-benzoimidazol-1-ylmethyl]-6-methyl-pyridin-3-ol]?
**A.** EC50 ([1]; Table 5a, RSV in HeLa cells, MTT, seven days after infection, pEC50 = -log of EC50 in molar units, read-out: Activity (converted)): 12.6 nM; melting point: 252 °C

**Q.** For Cc1cccc(N(CCC(=O)O)Cc2ccc3nc(N)n(Cc4nc(C)ccc4O)c3c2)c1 [Compound 161, 3-{[2-amino-3-(3-hydroxy-6-methyl-pyridin-2-ylmethyl)-3H-benzoimidazol-5-ylmethyl]-m-tolyl-amino}-propionic acid], which EC50 [1, 2] is on record?
**A.** 7.94 nM

**Q.** And the melting point?
**A.** 165 °C

**Q.** With Cc1cccc(N(CCN)Cc2ccc3nc(N)n(Cc4nc(C)ccc4O)c3c2)c1.Cl [Compound 131, 2-(2-amino-6-{[(2-amino-ethyl)-m-tolyl-amino]-methyl}-benzoimidazol-1-ylmethyl)-6-methyl-pyridin-3-ol HCl salt] as the molecule, how does the EC50 [1, 2] read?
**A.** 3.98 nM

**Q.** What about the melting point of the same molecule?
**A.** 200 °C

**Q.** What does the source list for CC(=O)O.Cc1ccc(O)c(Cn2c(N)nc3ccc(CNc4ccccc4C)cc32)n1 [Compound 8, 2-[2-Amino-6-(o-tolylamino-methyl)-benzoimidazol-1-ylmethyl]-6-methyl-pyridin-3-ol acetic acid salt]?
**A.** EC50 ([1]; Table 1, RSV in HeLa cells, MTT, seven days after infection, pEC50 = -log of EC50 in molar units, read-out: Activity (converted)): 3.16 nM; melting point: 120 °C

**Q.** Which results are given for Cc1ccc(O)c(Cn2c(N)nc3ccc(CN(CCC(N)=O)c4cccc(Br)c4)cc32)n1 [Compound 137, 3-[[2-Amino-3-(3-hydroxy-6-methyl-pyridin-2-ylmethyl)-3H-benzoimidazol-5-ylmethyl]-(3-bromo-phenyl)-amino]-propionamide]?
**A.** EC50 [1, 2]: 0.251 nM; melting point: 245 °C

**Q.** What does the source list for Cc1ccc(CCCO)c(NCc2ccc3nc(N)n(Cc4nc(C)ccc4OCc4ccccc4)c3c2)c1 [Compound 128]?
**A.** EC50 ([1]; table of compound 128 (scheme E), RSV in HeLa cells, MTT, seven days after infection, read-out: Activity category (converted)): 126 nM; melting point: 129 °C

**Q.** For Cc1ccc(O)c(Cn2cnc3cc(NC(=O)C4CCNCC4)ccc32)n1 [Compound 267], which Activity [1, 3] is on record?
**A.** <4.0

**Q.** For Cc1cc(C)cc(NCc2ccc3c(c2)ncn3Cc2nc(C)ccc2O)c1 [Compound 289], which Activity [1, 3] is on record?
**A.** <4.0

**Q.** With Cc1ccc(O)c(Cn2cnc3cc(C=Cc4ccccc4)ccc32)n1 [Compound 249] as the molecule, how does the Activity [1, 3] read?
**A.** <4.0

**Q.** For Cc1cc(C)cc(NCc2ccc3nc(N)n(Cc4nc(C)ccc4O)c3c2)c1 [Compound 9], which Activity [1, 4] is on record?
**A.** 8.4

**Q.** Which Activity [1, 4] does the source give for Cc1ccc(O)c(Cn2c(N)nc3ccc(CNc4cccc(C)c4CO)cc32)n1 [Compound 87] here?
**A.** 8.2

**Q.** Which Activity [1, 4] does the source give for Cc1ccc(O)c(Cn2c(N)nc3ccc(CNc4ccccc4)cc32)n1 [Compound 21] here?
**A.** 7.9

**Q.** Which Activity [1, 3] does the source give for Cc1ccc(O)c(Cn2cnc3cc(CNCCCN4CCOCC4)ccc32)n1.Cl [Compound 258] here?
**A.** <4.0

**Q.** For Cc1ccc(O)c(Cn2c(N)nc3ccc(CNc4ccc(Br)cc4)cc32)n1 [Compound 54], which Activity [1, 4] is on record?
**A.** 7.5

**Q.** With Cc1ccc(O)c(Cn2c(N)nc3ccc(CNc4cccc(C)c4CCO)cc32)n1 [Compound 84] as the molecule, how does the Activity [1, 4] read?
**A.** 9

**Q.** Which Activity [1, 3] does the source give for Cc1ccc(O)c(Cn2cnc3cc(CNc4cccc5cccnc45)ccc32)n1 [Compound 291] here?
**A.** <4.0

**Q.** Which Activity [1, 5] does the source give for Cc1ccc(O)c(Cn2c(N)nc3ccc(CCCN)cc32)n1.Cl [Compound 196] here?
**A.** 7.7

**Q.** Which Activity [1, 4] does the source give for Cc1ccc(O)c(Cn2c(N)nc3ccc(CNc4cc(Br)cc(C(F)(F)F)c4)cc32)n1 [Compound 37] here?
**A.** 7.7

**Q.** Which Activity [1, 4] does the source give for Cc1ccc(O)c(Cn2c(N)nc3ccc(CNc4cccc(Br)c4)cc32)n1 [Compound 3] here?
**A.** 8.6

**Q.** For CCc1cccc(NCc2ccc3nc(N)n(Cc4nc(C)ccc4O)c3c2)c1 [Compound 18], which Activity [1, 4] is on record?
**A.** 8.0

**Q.** Which Activity [1, 6] does the source give for Cc1ccc(CCCO)c(NCc2ccc3nc(N)n(Cc4cccc5cccnc45)c3c2)c1 [Compound 214] here?
**A.** 7.3

**Q.** For Cc1cc(C)cc(NCc2ccc3c(c2)nc(N)n3Cc2nc(C)ccc2O)c1 [Compound 117], which Activity [1, 7] is on record?
**A.** 6.8

**Q.** With COc1cc(NCc2ccc3nc(N)n(Cc4nc(C)ccc4O)c3c2)cc(C(F)(F)F)c1 [Compound 57] as the molecule, how does the Activity [1, 4] read?
**A.** 7.4

**Q.** For Cc1cc(C)c2nc(N)n(Cc3nc(C)ccc3O)c2c1 [Compound 199], which Activity [1, 5] is on record?
**A.** 6.8

**Q.** Which Activity [1, 4] does the source give for COc1cc(NCc2ccc3nc(N)n(Cc4nc(C)ccc4O)c3c2)cc(OC)c1 [Compound 34] here?
**A.** 7.7

**Q.** Which Activity [1, 4] does the source give for Cc1ccc(O)c(Cn2c(N)nc3ccc(CNc4ccc(S(N)(=O)=O)cc4)cc32)n1 [Compound 10] here?
**A.** 8.4

**Q.** Which Activity [1, 8] does the source give for Cc1ccc(CCO)c(NCc2ccc3ncn(Cc4nc(C)ccc4O)c3c2)c1 [Compound 192] here?
**A.** 7.8

**Q.** With Cc1ccc(O)c(Cn2c(N)nc3ccc(CNc4ccc5c(c4)OCCO5)cc32)n1 [Compound 43] as the molecule, how does the Activity [1, 4] read?
**A.** 7.6

**Q.** With Cc1ccc(O)c(Cn2cnc3cc(CCc4ccccc4)ccc32)n1 [Compound 250] as the molecule, how does the Activity [1, 3] read?
**A.** <4.0

**Q.** For CSc1cccc(NCc2ccc3nc(N)n(Cc4nc(C)ccc4O)c3c2)c1 [Compound 15], which Activity [1, 4] is on record?
**A.** 8.3

**Q.** With Cc1ccc(O)c(Cn2c(N)nc3ccc(CNc4cc(F)cc(C(F)(F)F)c4)cc32)n1 [Compound 45] as the molecule, how does the Activity [1, 4] read?
**A.** 7.6

**Q.** With Cc1ccc(O)c(Cn2cnc3ccc(CO)cc32)n1 [Compound 247] as the molecule, how does the Activity [1, 3] read?
**A.** <4.0

**Q.** For CCc1cccc(CC)c1NCc1ccc2nc(N)n(Cc3nc(C)ccc3O)c2c1 [Compound 17], which Activity [1, 4] is on record?
**A.** 8.1

**Q.** With C#Cc1cccc(NCc2ccc3nc(N)n(Cc4nc(C)ccc4O)c3c2)c1 [Compound 6] as the molecule, how does the Activity [1, 4] read?
**A.** 8.5

**Q.** For Cc1ccc(O)c(Cn2cnc3ccc(NC(=O)c4cccnc4)cc32)n1 [Compound 278], which Activity [1, 3] is on record?
**A.** <4.0

**Q.** For Cc1ccc(O)c(Cn2c(N)nc3ccc(CNc4cccc(C)c4C)cc32)n1 [Compound 19], which Activity [1, 4] is on record?
**A.** 8.0

**Q.** Which Activity [1, 3] does the source give for Cc1ccc(O)c(Cn2cnc3cc(CNCCCC4CCC(=O)N4)ccc32)n1 (centres unmarked) [Compound 241] here?
**A.** 4.5

**Q.** For Cc1cccc(N(CCCO)Cc2ccc3nc(N)n(Cc4cccc5cccnc45)c3c2)c1 [Compound 225], which Activity [1, 6] is on record?
**A.** <4

**Q.** For Cc1ccc(O)c(Cn2c(N)nc3ccc(CNc4ccc(Br)c(F)c4)cc32)n1 [Compound 63], which Activity [1, 4] is on record?
**A.** 7.3

**Q.** With COCCCNCc1ccc2c(c1)ncn2Cc1nc(C)ccc1O [Compound 260] as the molecule, how does the Activity [1, 3] read?
**A.** <4.0

**Q.** For Cc1ccc(O)c(Cn2cnc3ccc(CNc4cc(Cl)cc(Cl)c4)cc32)n1 [Compound 185], which Activity [1, 8] is on record?
**A.** 6.1

**Q.** Which Activity [1, 4] does the source give for CC(=O)O.Cc1ccc(O)c(Cn2c(N)nc3ccc(CNc4ccccc4-c4ccccc4)cc32)n1 [Compound 58] here?
**A.** 7.4

**Q.** With Cc1ccc(OCCO)c(NCc2ccc3nc(N)n(Cc4nc(C)ccc4O)c3c2)c1 [Compound 91] as the molecule, how does the Activity [1, 4] read?
**A.** 10.5

**Q.** For Cc1ccc(O)c(Cn2cnc3cc(NC(=O)c4cccnc4)ccc32)n1 [Compound 279], which Activity [1, 3] is on record?
**A.** <4.0

**Q.** With Cc1ccc(O)c(Cn2c(N)nc3ccc(CN(Cc4ccccc4)c4ccccc4)cc32)n1 [Compound 133] as the molecule, how does the Activity [1, 9] read?
**A.** 7.5

**Q.** Which Activity [1, 7] does the source give for Cc1ccc(O)c(Cn2c(N)nc3cc(CNc4cccc5cccnc45)ccc32)n1 [Compound 123] here?
**A.** <4.0

**Q.** With Cc1ccc(O)c(Cn2c(N)nc3ccc(CNc4ccccc4Br)cc32)n1 [Compound 20] as the molecule, how does the Activity [1, 4] read?
**A.** 8.0

**Q.** For Cc1ccc(O)c(Cn2cnc3cc(CNCCc4ccccc4)ccc32)n1 [Compound 253], which Activity [1, 3] is on record?
**A.** <4.0

**Q.** For CC(=O)c1cccc(NCc2ccc3c(c2)ncn3Cc2nc(C)ccc2O)c1 [Compound 286], which Activity [1, 3] is on record?
**A.** <4.0

**Q.** With Cc1ccc(O)c(Cn2c(N)nc3ccc(CN(C)c4ccccc4CCO)cc32)n1 [Compound 166] as the molecule, how does the Activity [1, 9] read?
**A.** 6.8
